From patent US20120225889A1, “USE OF MACROCYCLIC LACTONE DERIVATIVES FOR THE TREATMENT OF INFLAMMATORY DISORDERS” (PIRAMAL LIFE SCIENCES LIMITED, priority 2010, published 2012)

Legend:
[1] = system: DBA/1J mice with collagen induced arthritis; assay: Collagen-induced arthritis in mice; format: in vivo; details: compound of example 7 5 mg/kg, s.c., n=10; Enbrel 3 mg/kg, s.c., n=6; vehicle control 15.14+1.0
Method: The experiment was designed as in reference, J. Experimental Medicine, 162, 637-646 (1985), the disclosure of which is incorporated by reference for the teaching of the experiment.
Male DBA/1J mice with body weight range of 18-22 g, aged 8-10 weeks were immunized with an emulsion equivalent to 200 μg of type II collagen (Elastin products, USA) in Freund's Complete Adjuvant (Sigma, USA), injected intradermally at the base of the tail. The animals were boosted with 200 μg of freshly prepared typeII collagen emulsion emulsified in Freund's Complete Adjuant (Sigma, USA) on day 21. A group of naïve mice was also maintained alongside. Naïve animals are the animals which are neither immunized for induction of arthritis nor do they receive any treatment. This group is maintained to take care of the normal changes in the paw thickness with age.
From day 23, mice were examined daily once for the signs of rheumatoid arthritis, using the articular index and paw thickness as parameters. Articular index scoring was performed employing the following criteria:
• 0: No redness or swelling • 1: Redness, but no swelling • 2: Redness and swelling of the paw • 3: Redness and severe swelling of the paw Hind limbs: Scale 0-4 • 0: No redness or swelling • 1: Redness and mild swelling of paw • 2: Redness and moderate swelling of paw and/or swelling of at least one of the digits • 3: Redness and moderate/severe swelling of paw, swelling of ankle joint and/or swelling of one or more digits • 4: Redness and severe swelling of paw, digits and ankle joint, with joint stiffness Mice with a minimum hind paw score of 2, of even one paw, were inducted into the study. Mice were randomized into the various study groups, each group having at least eight animals, and were administered the vehicle (0.5% CMC, 10 mL/kg p.o. and s.c. twice daily), the test compound (5 mg/kg, p.o. and s.c., twice daily) and standard compound Enbrel (Wyeth Limited, UK), 3 mg/kg, s.c., once daily. The test compound was administered as a suspension in CMC. The requisite quantity of the compound was accurately weighed and was hand-pulverized using pestle-mortar. After mixing with minimum quantity of Tween 80 necessary to wet the compound, requisite quantity of 0.5% CMC solution was added and the compound was ground with CMC till the uniform suspension was obtained. Standard compound ‘Enbrel’ was used as an aqueous solution. The dosing of the compounds was done for 12 continuous days.
The following parameters were observed and recorded daily, • 1. Body weight • 2. Articular index • 3. Paw thickness of hind limbs only, in mm using a tension free calipers • 4. Any significant observation regarding the condition of the animals.
On 13th day morning, 1 h after the compound treatment, the animals were sacrificed, blood withdrawn, and plasma collected for drug level analyses. Also, the hind limbs of all the animals were preserved for histopathological evaluations.

[2] = system: TNF-α; assay: Screening in LPS stimulated THP-1 cells: TNF-α; format: cell-based; details: Homo sapiens, 24 h, ELISA
Method: (§1) IL-6 (BD Biosciences, USA) production by LPS (Escherchia coli 0127:B8, Sigma, USA) in THP-1 cells (ATCC number: TIB202) was designed as in reference, Journal of Immunology, 151, 5631-5638, (1993), the disclosure of which is incorporated by reference for the teaching of the assay.
(§2) THP-1 cells were cultured in RPMI 1640 culture medium (Gibco BRL, UK) containing 100 U/mL penicillin and […] streptomycin, (100× solution, Sigma, USA) containing 10% FBS (JRH Biosciences, USA). 25,000 cells were seeded per well in 96-well plate (Nunc, USA). The cells were differentiated with PMA (Sigma, USA, prepared as 100 μg/mL stock in RPMI and was diluted to 5 ng/mL). The test compound (prepared as 20 mM stock in DMSO and diluted with DMSO to achieve the following final concentrations in the assay: 100, 10, 1, 0.1, 0.01, 0.001 and 0.0001 μM) or vehicle (0.5% DMSO) were added to the cells and the cells were incubated for 30 min at 37° C. LPS (Sigma, USA, prepared as 1 mg/mL stock in PBS) was added to achieve a final concentration of 1 μg/mL. Plates were incubated at 37° C. for 24 h at 5% CO2. Supernatants were harvested, and assayed for TNF-α and IL-6 by ELISA as described by the manufacturer (BD Biosciences, USA). Percent inhibition of cytokine release compared to the control was calculated. The IC50 values were calculated by a nonlinear regression method.

[3] = system: IL-6; assay: Screening in LPS stimulated THP-1 cells: IL-6; format: cell-based; details: Homo sapiens, 24 h, ELISA
Method: as §1, §2

[4] = system: TNF-α; assay: Cytokine release assay in hPBMCs: TNF-α; format: cell-based; details: Homo sapiens; Table 3: PHA-PMA induced hPBMC's, 48 h; read-out: TNF-α IC50
Method: (§3) hPBMCs were obtained from healthy donors by centrifugation of heparinized venous blood over Ficoll/Hypaque solution (Histopaque-1077, Sigma, USA). Isolated hPBMCs were suspended in RPMI 1640 culture medium supplemented with 10% FBS and seeded at a density of 50,000 cells/well in a 96-well plate (Nunc, USA). The cells were incubated at 37° C., 5% CO2 for a period of 24 h. These cells were used for the lymphocyte proliferation as well as cytokine release assay.
(§4) The plated cells were treated with different concentrations of the test compound (prepared as mM stock in DMSO and diluted with DMSO to achieve the following final concentrations in the assay: 100, 10, 1, 0.1, 0.01, 0.001, 0.0001, 0.00001 and 0.000001 μM) and incubated for 30 min. The cells were then stimulated with PHA (prepared as 1 mg/mL stock in RPMI 1640 culture medium and used at a final concentration of 5 μg/mL). FK506 was used as a standard. The plates were incubated at 37° C., 5% CO2 for 48 h. The cytokines in the supernatant collected were detected using ELISA kit (BD biosciences, USA). The cytokines evaluated in the assay were TNF-α, IL-2, IL-6, and IFN-γ.

[5] = system: IL-2; assay: Cytokine release assay in hPBMCs: IL-2; format: cell-based; details: Homo sapiens; Table 3: PHA-PMA induced hPBMC's, 48 h; read-out: IL-2 IC50
Method: as §3, §4

[6] = system: IL-6; assay: Cytokine release assay in hPBMCs: IL-6; format: cell-based; details: Homo sapiens; Table 3: PHA-PMA induced hPBMC's, 48 h; read-out: IL-6 IC50
Method: as §3, §4

[7] = system: IFN-γ; assay: Cytokine release assay in hPBMCs: IFN-γ; format: cell-based; details: Homo sapiens; Table 3: PHA-PMA induced hPBMC's, 48 h; read-out: IFN-γ IC50
Method: as §3, §4

[8] = system: IL-6; assay: Human monocyte assay (LPS-induced): IL-6; format: cell-based; details: LPS stimulated human monocytes, 5 h
Description: The assay was designed as in reference, Physiological Research, 52, 593-598, (2003), the disclosure of which is incorporated by reference for the teaching of the assay.
The objective of the assay is to determine whether compounds of the present invention—mediated inhibition of LPS-induced cytokines from monocytic THP-1 cell line translates to physiologically relevant human cells. Accordingly, the effect of compounds of the present invention on LPS—induced cytokine production from freshly isolated human monocytes was ascertained.
Peripheral blood was collected from healthy donors into potassium EDTA vacutainer tubes (BD Biosciences, USA). hPBMCs were isolated using density gradient separation (Histopaque-1077; Sigma, USA) and suspended in assay medium which is RPMI culture medium (Sigma, USA) containing 10% heat inactivated FBS (JRH Biosciences, Australia), 100 U/mL penicillin (Sigma, USA) and […] streptomycin (Sigma, USA). Monocytes in the hPBMCs were counted using a Coulter Counter following which the cells were resuspended at 2×10^5 monocytes/mL of assay medium. A cell suspension containing 2×10^4 monocytes was aliquoted per well of a 96-well plate (Nunc, USA). Subsequently, the hPBMCs were incubated for 4-5 h at 37° C., 5% CO2. During the incubation, the monocytes adhered to the bottom of 96-well plate. Following the incubation, the non-adherent lymphocytes were washed and assay medium was added to adherent monocytes. After 48 h of incubation at 37° C., 5% CO2, monocytes were pre-treated with various concentrations of test compound (prepared as 20 mM stock in DMSO; 1 μL of […] concentrated solution of test compound was dissolved in 200 μL cell suspension to achieve a final concentration of 0.03, 0.1, 0.3, 1, 3, 10, 30 and 100 μM) or vehicle (0.5% DMSO) or 10 μM dexamethasone (standard IL-6 and TNF-α inhibitor, Sigma, USA) for 30 min at 37° C., 5% CO2 and stimulated with 1 μg/mL LPS (Escherchia coli 0111:B4, Sigma, USA). The cells were then incubated for 5 h at 37° C., 5% CO2 following which supernatants were collected, stored at −70° C. and were assayed later for IL-6, and TNF-α by ELISA (OptiEIA ELISA sets, BD Biosciences, USA). The IC50 values were calculated by a nonlinear regression method using Graph Pad software (Prism 3.03).

| Compound | Histological score of the section of paws [1] | IC50 [2] [nM] | IC50 [3] [nM] | IC50 [4] [nM] | IC50 [5] [nM] | IC50 [6] [nM] | IC50 [7] [nM] | IC50 [8] [nM] |
| --- | --- | --- | --- | --- | --- | --- | --- | --- |
| Enbrel | 5.8+0.95 |  |  |  |  |  |  |  |
| C/C=C/C(O)C(C)/C=C/C(=NOCC(=O)N1CCN(C)CC1)C(C)C(O)C(C)C1OC(=O)/C(OC)=C/C(C)=C/C(C)C(O)C(CC)C(O)C(C)C/C(C)=C/C=C/C1OC (stereo in doubt) [Compound of example 11, (3Z,5E,13E,15E)-18-((5Z,6E,10E)-3,9-Dihydroxy-4,8-dimethyl-5-(2-(4-methylpiperazin-1-yl)-2-oxoethoxyimino)dodeca-6,10-dien-2-yl)-9-ethyl-8,10-dihydroxy-3,17-dimethoxy-5,7,11,13-tetramethyloxacyclooctadeca-3,5,13,15-tetraen-2-one] |  | > 30000 | 300 | 50 | 50 | 10 | 5000 | > 10000 |
| C/C=C/C(O)C(C)/C=C/C(=NOCC(=O)N1CCCCC1)C(C)C(O)C(C)C1OC(=O)/C(OC)=C/C(C)=C/C(C)C(O)C(CC)C(O)C(C)C/C(C)=C/C=C/C1OC (stereo in doubt) [Compound of example 13, (3Z,5E,13E,15E)-18-((5Z,6E,10E)-3,9-Dihydroxy-4,8-dimethyl-5-(2-oxo-2-(piperidin-1-yl)ethoxyimino)dodeca-6,10-dien-2-yl)-9-ethyl-8,10-dihydroxy-3,17-dimethoxy-5,7,11,13-tetramethyloxacyclooctadeca-3,5,13,15-tetraen-2-one] |  | > 30000 | 200 | 20 | 200 | 500 | 10000 | 1400 |
| C/C=C/C(O)C(C)/C=C/C(=O)NC(C)C(O)C(C)C1OC(=O)/C(OC)=C/C(C)=C/C(C)C(O)C(CC)C(O)C(C)C/C(C)=C/C=C/C1OC (stereo not drawn) [Compound of example 16, (2E,6E)-N-(4-((4E,6E,14E,16Z)-11-Ethyl-10,12-dihydroxy-3,17-dimethoxy-7,9,13,15-tetramethyl-18-oxooxacyclooctadeca-4,6,14,16-tetraen-2-yl)-3-hydroxypentan-2-yl)-5-hydroxy-4-methylocta-2,6-dienamide] |  | > 100000 | 30 |  |  |  |  |  |
| C/C=C/C(O)C(C)/C=C/C(=NOCC(=O)N1CCC(N2CCCCC2)CC1)C(C)C(O)C(C)C1OC(=O)/C(OC)=C/C(C)=C/C(C)C(O)C(CC)C(O)C(C)C/C(C)=C/C=C/C1OC (stereo in doubt) [Compound of example 14, (3Z,5E,13E,15E)-18-((5Z,6E,10E)-5-(2-(1,4′-Bipiperidin-1′-yl)-2-oxoethoxyimino)-3,9-dihydroxy-4,8-dimethyldodeca-6,10-dien-2-yl)-9-ethyl-8,10-dihydroxy-3,17-dimethoxy-5,7,11,13-tetramethyloxacyclooctadeca-3,5,13,15-tetraen-2-one] |  | 18000 | 130 | 20 | 5 | 10 | 20 | 150 |
| C/C=C/C(O)C(C)/C=C/C(=NOCC(=O)O)C(C)C(O)C(C)C1OC(=O)/C(OC)=C/C(C)=C/C(C)C(O)C(CC)C(O)C(C)C/C(C)=C/C=C/C1OC (stereo in doubt) [Compound of example 10, ((Z)-((6E,10E)-2-((4E,6E,14E,16Z)-11-Ethyl-10,12-dihydroxy-3,17-dimethoxy-7,9,13,15-tetramethyl-18-oxooxacyclooctadeca-4,6,14,16-tetraen-2-yl)-3,9-dihydroxy-4,8-dimethyldodeca-6,10-dien-5-ylidene)aminooxy)acetic acid] |  | > 30000 | 2300 | 200 | 200 | 20 | 2000 |  |
